Literature values in patent US6372707B1, “Cleaning compositions” (Lever Brothers Company, division of Conopco, Inc., priority 1997, dated 2002).

Details: for Water Solubility (g/100 g): grams of solid to form a saturated solution in 100 grams of water at 20° C.

SMILES | Water Solubility (g/100 g) | solubility in water (at 20° C.)
O=P(O)(O)OP(=O)(O)OP(=O)(O)O [Sodium tripolyphosphate anhydrous] | 15 g/100 g | –
NC(N)=O [Urea] | >100 g/100 g | exceeding 100 gms per 100 ml water
O=BO[O-].[Na+] [Sodium perborate anhydrous] | 3.7 g/100 g | –
